Results: ChEMBL document CHEMBL1125543, “Urea and 2-imidazolidone derivatives of the muscarinic agents oxotremorine and N-methyl-N-(1-methyl-4-pyrrolidino-2-butynyl)acetamide” (J Med Chem, 1992)

Key:
[1] = molecular target: T1, Muscarinic acetylcholine receptor M3 (Cavia porcellus, UniProt Q8VH26); assay: Muscarinic acetylcholine receptor M3 agonistic/antagonistic activity in guinea pig ileum; assay type: functional, tissue-based
[2] = molecular target: T1, Muscarinic acetylcholine receptor M3; assay: Dissociation constant for complex with muscarinic acetylcholine receptor M3 of guinea pig ileum; assay type: tissue-based
[3] = molecular target: Muscarinic acetylcholine receptor M3 (Cavia porcellus) (UniProt Q8VH26); assay: Maximum contractile response relative to carbachol (E max) in guinea pig ileum as muscarinic acetylcholine receptor M3 agonistic/antagonistic activity; assay type: functional, tissue-based
Muscarinic acetylcholine receptor M3 (Cavia porcellus), sequence (Q8VH26 1-587): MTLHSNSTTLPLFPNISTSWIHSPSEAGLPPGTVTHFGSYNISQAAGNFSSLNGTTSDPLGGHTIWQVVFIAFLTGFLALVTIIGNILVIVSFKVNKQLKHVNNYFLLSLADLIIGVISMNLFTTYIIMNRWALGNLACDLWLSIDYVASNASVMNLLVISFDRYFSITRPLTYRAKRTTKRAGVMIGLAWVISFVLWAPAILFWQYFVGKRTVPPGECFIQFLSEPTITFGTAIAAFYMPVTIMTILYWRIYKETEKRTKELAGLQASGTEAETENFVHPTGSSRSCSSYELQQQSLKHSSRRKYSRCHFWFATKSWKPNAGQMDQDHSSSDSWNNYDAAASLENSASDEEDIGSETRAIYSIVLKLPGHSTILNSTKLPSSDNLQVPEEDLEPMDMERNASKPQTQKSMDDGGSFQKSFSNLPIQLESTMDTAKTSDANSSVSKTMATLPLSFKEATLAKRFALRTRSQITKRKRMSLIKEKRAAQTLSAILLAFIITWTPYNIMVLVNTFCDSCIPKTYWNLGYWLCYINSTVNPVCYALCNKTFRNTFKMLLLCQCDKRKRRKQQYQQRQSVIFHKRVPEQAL

[4] = molecular target: Muscarinic acetylcholine receptor; assay: Displacement of [3H]3-quinuclidinyl benzilate ([3H]-QNB) from muscarinic acetylcholine receptor of rat cerebral cortex; assay type: tissue-based
[5] = molecular target: Muscarinic acetylcholine receptor M3 (Cavia porcellus) (UniProt Q8VH26); assay: Relative efficacies determined with oxotremorine as the reference in guinea pig ileum, as a measure of muscarinic acetylcholine receptor M3 agonistic activity; assay type: functional, tissue-based

T1 sequence (Q8VH26 whole entry): as the sequence (Q8VH26 1-587) above

SMILES	EC50 [1] [µM]	Kd [2] [µM]	Emax [3]	Ki [4] [µM]	Efficacy [5]
CN(CC#CCN1CCCC1)C(N)=O	44.9	49	0.57	10.7	0.08
C[N+](C)(C)CCOC(N)=O	–	–	1	–	5.71
CC(C#CCN1CCCC1)N(C)C(N)=O (centres undefined)	–	0.71	0	0.42	0
O=CN1CCN(CC#CCN2CCCC2)C1=O	8.6	20.9	1	26.4	0.14
O=C1CCCN1CC#CCN1CCCC1 [OXOTREMORINE]	0.05	1.2	1	0.23	1
O=C1CNC(=O)N1CC#CCN1CCCC1	46.4	100	0.37	17.2	0.12
CC(C#CCN1CCCC1)N1CCCC1=O (centres undefined)	–	0.091	0	0.059	0
CN1CCN(CC#CCN2CCCC2)C1=O	0.1	2.9	1	1.6	0.21
O=C1NCCN1CC#CCN1CCCC1	2.67	30.3	1	6.5	0.49
CNC(=O)N(C)CC#CCN1CCCC1	2.16	26.4	1	15.8	0.53
CC(=O)N(C)C(C)C#CCN1CCCC1 (centres undefined)	0.19	0.24	0.83	–	0.013
CNC(=O)N(C)C(C)C#CCN1CCCC1 (centres undefined)	2.11	7.5	1	4.2	0.18
CC1CCN(CC#CCN2CCCC2)C1=O (centres undefined)	0.5	11.5	–	–	–
CC(=O)N1CCN(CC#CCN2CCCC2)C1=O	> 300	–	0	27.4	0
CC(C#CCN1CCCC1)N1CCNC1=O (centres undefined)	–	0.48	0	0.64	0
